Here are results for ten compounds from patent US7879864B2, “Substituted 8-aminoalkoxy-xanthine compounds and compositions useful in the treatment of hyperlipidemia and diabetes” (Sanofi-Aventis Deutschland GmbH, priority 2004, dated 2011).

Where a name gives a salt, the structure may show the parent alone.

The target in one data set is T1, DPP-IV from porcine kidney (Sus scrofa, UniProt P22411).
T1 construct: DPP-IV from porcine kidney (Sigma, Munich); purchased Sigma, Munich; host or cells: porcine kidney
T1 sequence (P22411 whole entry): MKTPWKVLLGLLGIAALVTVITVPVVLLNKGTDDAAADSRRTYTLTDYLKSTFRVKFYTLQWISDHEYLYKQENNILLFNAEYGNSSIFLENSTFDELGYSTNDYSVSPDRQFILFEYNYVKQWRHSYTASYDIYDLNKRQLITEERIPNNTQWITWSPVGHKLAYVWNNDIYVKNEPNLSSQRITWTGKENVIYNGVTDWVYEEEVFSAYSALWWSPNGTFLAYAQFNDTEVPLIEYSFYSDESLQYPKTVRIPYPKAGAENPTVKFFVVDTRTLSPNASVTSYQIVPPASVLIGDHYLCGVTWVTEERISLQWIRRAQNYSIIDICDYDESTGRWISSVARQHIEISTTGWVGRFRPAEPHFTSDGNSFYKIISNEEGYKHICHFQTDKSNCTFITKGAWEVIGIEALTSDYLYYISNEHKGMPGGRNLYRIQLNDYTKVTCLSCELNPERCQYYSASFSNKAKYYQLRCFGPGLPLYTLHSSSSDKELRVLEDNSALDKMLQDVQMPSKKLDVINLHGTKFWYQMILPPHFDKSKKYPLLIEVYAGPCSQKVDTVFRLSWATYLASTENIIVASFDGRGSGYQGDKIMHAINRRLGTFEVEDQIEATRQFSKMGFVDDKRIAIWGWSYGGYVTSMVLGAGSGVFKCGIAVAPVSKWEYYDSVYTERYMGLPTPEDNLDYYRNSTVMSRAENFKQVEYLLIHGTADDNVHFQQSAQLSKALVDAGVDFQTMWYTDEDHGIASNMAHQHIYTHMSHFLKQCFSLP
As to the kind of experiment: Measurement of the DPP-IV activity (fluorimetric H-Ala-Pro-AFC conversion). Conditions: DPP-IV 1 mU/ml, H-Ala-Pro-AFC 15 μM, Tris/HCl 40 mM pH 7.4, room temperature, typically 10 min. Format: biochemical. As for the experimental part: The activity of the compounds was assayed as follows: • Measurement of the DPP-IV activity:
The reaction was carried out at room temperature for various times (typically 10 min) and stopped at the end of the reaction by adding 20 μl of ZnCl2 (1 M). […] When inhibitors were added, the added buffer volume was adapted so that a total volume of 200 μl was maintained for the assay mixture.
In turn, `CC(C)=CCn1c(OCC(N)Cc2ccc(Cl)cc2)nc2c1c(=O)n(CC(=O)c1ccccc1)c(=O)n2C` (stereo not shown) [Example 3, 8-[2-Amino-3-(4-chlorophenyl)propoxyl]-3-methyl-7-(3-methylbut-2-enyl)-1-(2-oxo-2-phenylethyl)-3,7-dihydropurine-2,6-dione] registered an IC50 of 460 nM.

The compound `CC(C)=CCn1c(OC[C@@H]2CCNC2)nc2c1c(=O)n(CC(=O)c1ccccc1)c(=O)n2C` [Example 10, (R)-3-Methyl-7-(3-methylbut-2-enyl)-1-(2-oxo-2-phenylethyl)-8-(pyrrolidin-3-ylmethoxy)-3,7-dihydropurine-2,6-dione hydrochloride] returned a 50% inhibitory concentration (IC50) of 34 nM.

The compound `CC(C)=CCn1c(OCCN)nc2c1c(=O)n(CC(=O)c1ccccc1)c(=O)n2C` [Example 2, 8-(2-Aminoethoxy)-3-methyl-7-(3-methylbut-2-enyl)-1-(2-oxo-2-phenylethyl)-3,7-dihydropurine-2,6-dione] returned a concentration for half-maximal inhibition (IC50) of 20 nM.

With `CC(C)=CCn1c(O[C@@H]2CCCC[C@@H]2CN)nc2c1c(=O)n(CC(=O)c1ccccc1)c(=O)n2C` (relative stereo) [Example 28, cis-8-(2-Aminomethylcyclohexyloxy)-3-methyl-7-(3-methylbut-2-enyl)-1-(2-oxo-2-phenylethyl)-3,7-dihydropurine-2,6-dione], the IC50 was 13 nM.

Regarding `CC(C)=CCn1c(OC[C@H](C)N)nc2c1c(=O)n(CC(=O)c1ccccc1)c(=O)n2C` [Example 4, (S)-8-(2-Aminopropoxy)-3-methyl-7-(3-methylbut-2-enyl)-1-(2-oxo-2-phenylethyl)-3,7-dihydropurine-2,6-dione], the IC50 is 28 nM.

`CC(C)=CCn1c(OCC2CCCCN2)nc2c1c(=O)n(CC(=O)c1ccccc1)c(=O)n2C` (stereo not shown) [Example 7, 3-Methyl-7-(3-methylbut-2-enyl)-1-(2-oxo-2-phenylethyl)-8-(piperidin-2-ylmethoxy)-3,7-dihydropurine-2,6-dione] returned an IC50 of 51 nM.

In the case of `CC(C)=CCn1c(OC[C@@H](C)N)nc2c1c(=O)n(CC(=O)c1ccccc1)c(=O)n2C` [Example 11, (R)-8-(2-Aminopropoxy)-3-methyl-7-(3-methylbut-2-enyl)-1-(2-oxo-2-phenylethyl)-3,7-dihydropurine-2,6-dione], the midpoint of inhibition, the IC50, lay at 100 nM.

With `CC(C)=CCn1c(OC[C@H]2CCNC2)nc2c1c(=O)n(CC(=O)c1ccccc1)c(=O)n2C` [Example 9, (S)-3-Methyl-7-(3-methylbut-2-enyl)-1-(2-oxo-2-phenylethyl)-8-(pyrrolidin-3-ylmethoxy)-3,7-dihydropurine-2,6-dione hydrochloride], the 50% inhibitory concentration (IC50) was 120 nM.

Compound `CC(C)=CCn1c(OC2CCCCC2CN)nc2c1c(=O)n(CC(=O)c1ccccc1)c(=O)n2C` (mixture of isomers) [Example 37, trans-8-(2-Aminomethylcyclohexyloxy)-3-methyl-7-(3-methylbut-2-enyl)-1-(2-oxo-2-phenylethyl)-3,7-dihydropurine-2,6-dione hydrochloride (mixture of diastereomers)] came in with an IC50 of 4.5 nM.

Tested on in another data set: not given
Test: not given
Conditions: not given
Compound `CC(C)=CCn1c(O[C@@H]2CCCC[C@H]2CN)nc2c1c(=O)n(CC(=O)c1ccccc1)c(=O)n2C` (single isomer, unassigned; diastereomer 1) [Example 38, trans-8-(2-Aminomethylcyclohexyloxy)-3-methyl-7-(3-methylbut-2-enyl)-1-(2-oxo-2-phenylethyl)-3,7-dihydropurine-2,6-dione (diastereomer 1)] had a melting point of 151.7 °C.

The IC50 is the concentration at which inhibition is half-maximal. Low readings indicate higher potency, high ones lower potency. As usually defined, the melting point is the temperature, or range, at which the solid turns liquid.
